Experimental data from the supplement of paper PMC11451515.

Tested on: SEM cells
Assay: cell viability relative to DMSO control; higher = less cytotoxic
Details: 48 h
In short: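 Viability was expressed as a per-plate percentage of DMSO wells, with cell-free wells as background. Leukemia cells (NOMO1 or SEM at 500 cells/well, P12-Ichikawa at 1000 cells/well) were adapted for at least four passages in each medium and seeded in 1536-well plates (5 μl). Library compounds in DMSO were pin-dosed over an 11-point threefold series from 47 μM to 0.79 nM, and CellTiter-Glo One luminescence was read after 48 h at 37°C.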

[1] = HPLM + 10% dialyzed FBS, 0.000781 µM
[2] = HPLM + 10% dialyzed FBS, 0.00234 µM
[3] = HPLM + 10% dialyzed FBS, 0.00702 µM
[4] = HPLM + 10% dialyzed FBS, 0.0211 µM
[5] = HPLM + 10% dialyzed FBS, 0.0632 µM
[6] = HPLM + 10% dialyzed FBS, 0.19 µM
[7] = HPLM + 10% dialyzed FBS, 0.569 µM
[8] = HPLM + 10% dialyzed FBS, 1.71 µM
[9] = HPLM + 10% dialyzed FBS, 5.12 µM
[10] = HPLM + 10% dialyzed FBS, 15.4 µM
[11] = HPLM + 10% dialyzed FBS, 46.1 µM
[12] = RPMI 5 mM glucose + 10% FBS, 0.000781 µM
[13] = RPMI 5 mM glucose + 10% FBS, 0.00234 µM
[14] = RPMI 5 mM glucose + 10% FBS, 0.00702 µM
[15] = RPMI 5 mM glucose + 10% FBS, 0.0211 µM
[16] = RPMI 5 mM glucose + 10% FBS, 0.0632 µM
[17] = RPMI 5 mM glucose + 10% FBS, 0.19 µM
[18] = RPMI 5 mM glucose + 10% FBS, 0.569 µM
[19] = RPMI 5 mM glucose + 10% FBS, 1.71 µM
[20] = RPMI 5 mM glucose + 10% FBS, 5.12 µM
[21] = RPMI 5 mM glucose + 10% FBS, 15.4 µM
[22] = RPMI 5 mM glucose + 10% FBS, 46.1 µM
[23] = RPMI 5 mM glucose + 10% dialyzed FBS, 0.000781 µM
[24] = RPMI 5 mM glucose + 10% dialyzed FBS, 0.00234 µM
[25] = RPMI 5 mM glucose + 10% dialyzed FBS, 0.00702 µM
[26] = RPMI 5 mM glucose + 10% dialyzed FBS, 0.0211 µM
[27] = RPMI 5 mM glucose + 10% dialyzed FBS, 0.0632 µM
[28] = RPMI 5 mM glucose + 10% dialyzed FBS, 0.19 µM
[29] = RPMI 5 mM glucose + 10% dialyzed FBS, 0.569 µM
[30] = RPMI 5 mM glucose + 10% dialyzed FBS, 1.71 µM
[31] = RPMI 5 mM glucose + 10% dialyzed FBS, 5.12 µM
[32] = RPMI 5 mM glucose + 10% dialyzed FBS, 15.4 µM
[33] = RPMI 5 mM glucose + 10% dialyzed FBS, 46.1 µM

O=C1CCC[C@@H]2[C@H]3CCC[N+]4([O-])CCC[C@@H](CN12)[C@@H]34 (some centres undefined)
cell viability [1]: 61.8% | cell viability [2]: 68.2% | cell viability [3]: 84.1% | cell viability [4]: 86.2% | cell viability [5]: 96.2% | cell viability [6]: 94% | cell viability [7]: 89.4% | cell viability [8]: 92.1% | cell viability [9]: 71.9% | cell viability [10]: 27.1% | cell viability [11]: 78.6% | cell viability [12]: 84.7% | cell viability [13]: 87.4% | cell viability [14]: 93.9% | cell viability [15]: 94.7% | cell viability [16]: 89.1% | cell viability [17]: 101% | cell viability [18]: 96.6% | cell viability [19]: 99.5% | cell viability [20]: 71.5% | cell viability [21]: 18.8% | cell viability [22]: 86.8% | cell viability [23]: 89.7% | cell viability [24]: 68.5% | cell viability [25]: 82.2% | cell viability [26]: 97.9% | cell viability [27]: 85.4% | cell viability [28]: 96.6% | cell viability [29]: 102% | cell viability [30]: 81.4% | cell viability [31]: 91.1% | cell viability [32]: 24% | cell viability [33]: 88.7%

O=[S+]([O-])(CCSSCC[S+](=O)([O-])[O][Na])[O][Na]
cell viability [1]: 78.9% | cell viability [2]: 95.5% | cell viability [3]: 101% | cell viability [4]: 65.2% | cell viability [5]: 120% | cell viability [6]: 104% | cell viability [7]: 102% | cell viability [8]: 103% | cell viability [9]: 107% | cell viability [10]: 108% | cell viability [11]: 118% | cell viability [12]: 117% | cell viability [13]: 97.5% | cell viability [14]: 116% | cell viability [15]: 73.7% | cell viability [16]: 115% | cell viability [17]: 112% | cell viability [18]: 119% | cell viability [19]: 103% | cell viability [20]: 124% | cell viability [21]: 112% | cell viability [22]: 111% | cell viability [23]: 103% | cell viability [24]: 99.9% | cell viability [25]: 113% | cell viability [26]: 72.8% | cell viability [27]: 134% | cell viability [28]: 120% | cell viability [29]: 126% | cell viability [30]: 120% | cell viability [31]: 121% | cell viability [32]: 126% | cell viability [33]: 139%

CC1=CC=C2\N=C/3N(CC[C@@]3(O)C(=O)C2=C1)C4=CC=CC=C4
cell viability [1]: 89.5% | cell viability [2]: 88.6% | cell viability [3]: 97.7% | cell viability [4]: 87.3% | cell viability [5]: 94.5% | cell viability [6]: 93% | cell viability [7]: 96.6% | cell viability [8]: 95% | cell viability [9]: 70.5% | cell viability [10]: 85.8% | cell viability [11]: 93% | cell viability [12]: 119% | cell viability [13]: 120% | cell viability [14]: 98.3% | cell viability [15]: 120% | cell viability [16]: 108% | cell viability [17]: 121% | cell viability [18]: 97% | cell viability [19]: 94.9% | cell viability [20]: 92.4% | cell viability [21]: 117% | cell viability [22]: 107% | cell viability [23]: 86.8% | cell viability [24]: 83.2% | cell viability [25]: 85.6% | cell viability [26]: 95.7% | cell viability [27]: 92.6% | cell viability [28]: 76.6% | cell viability [29]: 101% | cell viability [30]: 78.3% | cell viability [31]: 70.8% | cell viability [32]: 87.2% | cell viability [33]: 94.5%

CCOC(CN1C(=O)[C@](CC(=O)Nc2ccc(C)cc2)(NC(=O)Nc2ccc(C)cc2)c2ccccc21)OCC
cell viability [1]: 117% | cell viability [2]: 101% | cell viability [3]: 105% | cell viability [4]: 120% | cell viability [5]: 105% | cell viability [6]: 116% | cell viability [7]: 114% | cell viability [8]: 102% | cell viability [9]: 86.6% | cell viability [10]: 99.6% | cell viability [11]: 73.5% | cell viability [12]: 99% | cell viability [13]: 98.8% | cell viability [14]: 113% | cell viability [15]: 108% | cell viability [16]: 99.4% | cell viability [17]: 108% | cell viability [18]: 119% | cell viability [19]: 87.7% | cell viability [20]: 75.9% | cell viability [21]: 77.3% | cell viability [22]: 79.9% | cell viability [23]: 109% | cell viability [24]: 115% | cell viability [25]: 100% | cell viability [26]: 113% | cell viability [27]: 122% | cell viability [28]: 113% | cell viability [29]: 110% | cell viability [30]: 98.4% | cell viability [31]: 102% | cell viability [32]: 105% | cell viability [33]: 66.5%

NC1CCC(Nc2nc(Nc3ccc(C(=O)N4CCCCC4)cc3)c3ncn(-c4cccc(F)c4)c3n2)CC1 (centres undefined)
cell viability [1]: 91.7% | cell viability [2]: 94.8% | cell viability [3]: 95.2% | cell viability [4]: 96.6% | cell viability [5]: 102% | cell viability [6]: 117% | cell viability [7]: 55% | cell viability [8]: 59.1% | cell viability [9]: 102% | cell viability [10]: 128% | cell viability [11]: 125% | cell viability [12]: 110% | cell viability [13]: 102% | cell viability [14]: 104% | cell viability [15]: 112% | cell viability [16]: 103% | cell viability [17]: 124% | cell viability [18]: 75.9% | cell viability [19]: 62.9% | cell viability [20]: 100% | cell viability [21]: 110% | cell viability [22]: 90.1% | cell viability [23]: 99.6% | cell viability [24]: 99% | cell viability [25]: 100% | cell viability [26]: 99.3% | cell viability [27]: 106% | cell viability [28]: 113% | cell viability [29]: 64.6% | cell viability [30]: 41.9% | cell viability [31]: 98.6% | cell viability [32]: 98.6% | cell viability [33]: 88.9%

CCc1c(O)cc(O)c(C(=O)c2ccc(OCCN3CCOCC3)c(OC)c2)c1CC(=O)N(CCOC)CCOC
cell viability [1]: 115% | cell viability [2]: 124% | cell viability [3]: 118% | cell viability [4]: 120% | cell viability [5]: 116% | cell viability [6]: 116% | cell viability [7]: 111% | cell viability [8]: 103% | cell viability [9]: 47.3% | cell viability [10]: 25.5% | cell viability [11]: 17% | cell viability [12]: 122% | cell viability [13]: 116% | cell viability [14]: 153% | cell viability [15]: 121% | cell viability [16]: 143% | cell viability [17]: 117% | cell viability [18]: 81.9% | cell viability [19]: 91.3% | cell viability [20]: 40.8% | cell viability [21]: 20.8% | cell viability [22]: 19% | cell viability [23]: 115% | cell viability [24]: 103% | cell viability [25]: 111% | cell viability [26]: 106% | cell viability [27]: 108% | cell viability [28]: 105% | cell viability [29]: 86.5% | cell viability [30]: 68.1% | cell viability [31]: 32.9% | cell viability [32]: 24.1% | cell viability [33]: 15%

O=C(NCCO[N+](=O)[O-])c1cccnc1
cell viability [1]: 99.3% | cell viability [2]: 64.4% | cell viability [3]: 107% | cell viability [4]: 114% | cell viability [5]: 105% | cell viability [6]: 97.1% | cell viability [7]: 101% | cell viability [8]: 98.7% | cell viability [9]: 108% | cell viability [10]: 105% | cell viability [11]: 115% | cell viability [12]: 100% | cell viability [13]: 92.8% | cell viability [14]: 112% | cell viability [15]: 111% | cell viability [16]: 112% | cell viability [17]: 114% | cell viability [18]: 96.1% | cell viability [19]: 102% | cell viability [20]: 112% | cell viability [21]: 121% | cell viability [22]: 108% | cell viability [23]: 107% | cell viability [24]: 89.6% | cell viability [25]: 112% | cell viability [26]: 109% | cell viability [27]: 97.6% | cell viability [28]: 111% | cell viability [29]: 96.6% | cell viability [30]: 105% | cell viability [31]: 110% | cell viability [32]: 111% | cell viability [33]: 110%

CCCCCCCCOc1ccccc1C(=O)Nc1ccc(C(=O)OCC[N+](C)(CC)CC)cc1
cell viability [1]: 105% | cell viability [2]: 115% | cell viability [3]: 101% | cell viability [4]: 105% | cell viability [5]: 102% | cell viability [6]: 112% | cell viability [7]: 108% | cell viability [8]: 96.6% | cell viability [9]: 73.9% | cell viability [10]: 91.2% | cell viability [11]: 57.2% | cell viability [12]: 98.2% | cell viability [13]: 93% | cell viability [14]: 84.5% | cell viability [15]: 102% | cell viability [16]: 96.9% | cell viability [17]: 102% | cell viability [18]: 97% | cell viability [19]: 85.6% | cell viability [20]: 49.5% | cell viability [21]: 93.5% | cell viability [22]: 33.4% | cell viability [23]: 97% | cell viability [24]: 109% | cell viability [25]: 90.4% | cell viability [26]: 99.9% | cell viability [27]: 107% | cell viability [28]: 121% | cell viability [29]: 104% | cell viability [30]: 95.3% | cell viability [31]: 75.5% | cell viability [32]: 118% | cell viability [33]: 30.7%
